The test concerns Jurkat T cells. The experiment in a line: Real-time quantitative PCR of T-cell activation genes in Jurkat T cells. The test is classed as cell-based. The procedure: Jurkat T cells were collected by QIAzol Lysis Reagent (Qiagen) to extract total RNA. cDNA was reverse transcribed from the isolated RNA using AMV Reverse Transcriptase and random hexamers. Real-time quantitative PCR for each cDNA was performed using TB Green® Premix Ex Taq™ (TaKaRa, Kusatsu, Japan) in the CFX Connect Real-time PCR Detection System (Bio-Rad, Hercules, CA, USA), and normalized to expression of 18S rRNA or GAPDH.

On to PEITVTPPTP [CABIN1-L-1-2], for which the “RNA levels of T-cell activation genes by qRT-PCR” value is “reduced RNA levels of these genes more effectively than VIVIT peptides”.

For the origin of these results see patent publication US20240376163A1, “PEPTIDE FOR INHIBITING CALCINEURIN AND USE THEREOF” (Seoul National University R&DB Foundation, priority 2023, published 2024).
